Consider 19 molecules from US4824843A, “Substituted amide inhibitors of cholesterol absorption” (Warner-Lambert Company, priority 1987, dated 1989).

Where a name gives a salt, the structure may show the parent alone.

The target in this assay is T1, acyl-CoA: cholesterol acyltransferase (ACAT) (Oryctolagus cuniculus, UniProt G1SFD9).
T1 construct: rabbit intestinal microsomal fraction; from tissue; host or cells: rabbit intestinal microsomal fraction
T1 sequence (G1SFD9 1-524): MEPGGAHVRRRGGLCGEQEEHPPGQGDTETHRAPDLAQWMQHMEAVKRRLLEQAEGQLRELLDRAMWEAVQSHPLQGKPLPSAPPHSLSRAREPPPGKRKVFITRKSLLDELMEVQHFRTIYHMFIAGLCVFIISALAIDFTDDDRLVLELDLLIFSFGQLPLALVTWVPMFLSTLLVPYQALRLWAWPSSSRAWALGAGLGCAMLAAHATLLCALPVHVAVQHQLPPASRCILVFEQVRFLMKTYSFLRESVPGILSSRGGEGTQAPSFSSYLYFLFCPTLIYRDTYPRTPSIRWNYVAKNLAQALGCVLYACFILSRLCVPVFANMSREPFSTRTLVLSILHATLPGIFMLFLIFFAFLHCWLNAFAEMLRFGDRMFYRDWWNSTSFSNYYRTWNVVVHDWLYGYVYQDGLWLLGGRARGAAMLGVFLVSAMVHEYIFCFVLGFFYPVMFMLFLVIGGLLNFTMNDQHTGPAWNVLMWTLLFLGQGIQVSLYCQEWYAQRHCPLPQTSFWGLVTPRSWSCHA
The assay can be described thus: In vitro inhibition of cholesterol esterification by ACAT (cholesteryl oleate formation), rabbit intestinal microsomal fraction. The assay is classed as biochemical. The note with it: endogenous cholesterol of rabbit intestinal microsomal fraction and exogenous 14C-oleoyl-CoA; read-out: IC50 (concentration of test compound required to inhibit cholesteryl oleate formation to 50% of control). The method, then: The compounds of the present invention were tested for their ability to inhibit the esterification of cholesterol by the enzyme acyl-CoA: cholesterol acyltransferase (ACAT). The data in the table below is expressed as IC50 values, i.e. the concentration of test compound required to inhibit cholesteryl oleate formation to 50% of control.
The in vitro test employed is more fully described in Field, F. J. and Salome, R. G., Biochemica et Biophysica Acta, 712, pp. 557-570 (1982). The assay evaluates the ability of a test compound to inhibit the esterification of cholesterol using endogenous cholesterol of a rabbit intestinal microsomal fraction and exogenous ^14 C-oleoyl-CoA as reactants.
Turning to `Cc1ccc(C)c(OCCCC(C)(C)C(=O)Nc2cccc(C3=NC(C)(C)CO3)c2C)c1` [Example 1, N-[3-(4,5-Dihydro-4,4-dimethyl-2-oxazolyl)-2-methylphenyl]-5-(2,5-dimethylphenoxy)-2,2-dimethylpentanamide], the IC50 came to 24 µM.
With `Cc1ccc(C)c(OCCCC(C)(C)C(=O)Nc2cccc(C3=NC(C)(C)CO3)c2)c1` [Example 1a, N-[3-(4,5-Dihydro-4,4-dimethyl-2-oxazolyl)phenyl]-5-(2,5-dimethylphenoxy)-2,2-dimethylpentanamide] the figure was 22 µM; with `Cc1ccc(C)c(OCCCC(C)(C)C(=O)Nc2cc(C3=NC(C)(C)CO3)ccc2C)c1` [Example 1b, N-[5-(4,5-Dihydro-4,4-dimethyl-2-oxazolyl)-2-methylphenyl]-5-(2,5-dimethylphenoxy)-2,2-dimethylpentanamide], 5.5 µM.
In the case of `Cc1ccc(C)c(OCCCC(C)(C)C(=O)Nc2cccc(C3=NCCO3)c2C)c1` [Example 1c, N-[3-(4,5-Dihydro-2-oxazolyl)-2-methylphenyl]-5-(2,5-dimethylphenoxy)-2,2-dimethylpentanamide] it was 10 µM; in that of `Cc1ccc(C)c(OCCCC(C)(C)C(=O)Nc2ccc(C)c(CC3=NC(C)(C)CO3)c2)c1` [Example 1d, N-[3-[(4,5-Dihydro-4,4-dimethyl-2-oxazolyl)methyl]-4-methylphenyl]-5-(2,5-dimethylphenoxy)-2,2-dimethylpentanamide], 1 µM.
`COc1ccc(NC(=O)C(C)(C)CCCOc2cc(C)ccc2C)cc1CCC1=NC(C)(C)CO1` [Example 2, N-[3-[2-(4,5-Dihydro-4,4-dimethyl-2-oxazolyl)ethyl]-4-methoxyphenyl]-5-(2,5-dimethylphenoxy)-2,2-dimethylpentanamide]: the IC50 was 3.7 µM.
On to `Cc1ccc(C)c(OCCCC(C)(C)C(=O)Nc2cccc(C=CC3=NC(C)(C)CO3)c2)c1` [Example 2a, N-[3-[2-(4,5-Dihydro-4,4-dimethyl-2-oxazolyl)ethenyl]phenyl]-5-(2,5-dimethylphenoxy)-2,2-dimethylpentanamide], for which the IC50 stood at 9.4 µM.
With `COc1ccc(/C=C/C2=NC(C)(C)CO2)cc1NC(=O)C(C)(C)CCCOc1cc(C)ccc1C` [Example 2b, (E)-N-[5-[2-(4,5-Dihydro-4,4-dimethyl-2-oxazolyl)ethenyl]-2-methoxyphenyl]-5-(2,5-dimethylphenoxy)-2,2-dimethylpentanamide] the figure was 8 µM; with `COc1ccc(CC2=NC(C)(C)CO2)cc1NC(=O)C(C)(C)CCCOc1cc(C)ccc1C` [Example 3, N-[5-[(4,5-Dihydro-4,4-dimethyl-2-oxazolyl)methyl]-2-methoxyphenyl]-5-(2,5-dimethylphenoxy)-2,2-dimethylpentanamide], 5.5 µM; with `Cc1ccc(C)c(OCCCC(C)(C)C(=O)Nc2cccc(OCC3=NC(C)(C)CO3)c2)c1` [Example 3a, N-[3-[(4,5-Dihydro-4,4-dimethyl-2-oxazolyl)methoxy]phenyl]-5-(2,5-dimethylphenoxy)-2,2-dimethylpentanamide], 9.2 µM.
With `Cc1ccc(C)c(OCCCC(C)(C)C(=O)Nc2cc(CC3=NC(C)(C)CO3)ccc2C)c1` [Example 3b, N-[5-[(4,5-Dihydro-4,4-dimethyl-2-oxazolyl)methyl]-2-methylphenyl]-5-(2,5-dimethylphenoxy)-2,2-dimethylpentanamide] the figure was 0.8 µM; with `Cc1ccc(C)c(OCCCC(C)(C)C(=O)Nc2cccc(C3=NCCCO3)c2)c1` [Example 4, N-[3-(5,6-Dihydro-4H-1,3-oxazin-2-yl)phenyl]-5-(2,5-dimethylphenoxy)-2,2-dimethylpentanamide], 20 µM.
With `COc1ccc(C2=NC(C)(C)CO2)cc1NC(=O)C(C)(C)CCCOc1cc(C)ccc1C` [Example 4b, N-[5-(4,5-Dihydro-4,4-dimethyl-2-oxazolyl)-2-methoxyphenyl]-5-(2,5-dimethylphenoxy)-2,2-dimethylpentanamide] the figure was 9 µM; with `COc1ccc(NC(=O)C(C)(C)CCCOc2cc(C)ccc2C)cc1C1=NC(C)(C)CO1` [Example 4d, N-[3-(4,5-Dihydro-4,4-dimethyl-2-oxazolyl)-4-methoxyphenyl]-5-(2,5-dimethylphenoxy)-2,2-dimethylpentanamide], 19 µM; with `COc1cc(OC)c(C2=NC(C)(C)CO2)cc1NC(=O)C(C)(C)CCCOc1cc(C)ccc1C` [Example 4e, N-[5-(4,5-Dihydro-4,4-dimethyl-2-oxazolyl)-2,4-dimethoxyphenyl]-5-(2,5-dimethylphenoxy)-2,2-dimethylpentanamide], 9 µM.
For `COc1ccc(C2=NCCCO2)cc1NC(=O)C(C)(C)CCCOc1cc(C)ccc1C` [Example 4f, N-[5-(5,6-Dihydro-4H-1,3-oxazin-2-yl)-2-methoxyphenyl]-5-(2,5-dimethylphenoxy)-2,2-dimethylpentanamide], the IC50 came out at 18 µM.
Consider `COC(=N)c1cccc(NC(=O)C(C)(C)CCCOc2cc(C)ccc2C)c1` [Example 4g, 5-(2,5-Dimethylphenoxy)-N-[3-(iminomethoxymethyl)phenyl]-2,2-dimethylpentanamide monohydrochloride], for which the IC50 was found to be 13 µM.
In the case of `Cc1ccc(C)c(OCCCC(C)(C)C(=O)Nc2cccc(-c3ncco3)c2)c1` [Example 4h, 5-(2,5-Dimethylphenoxy)-2,2-dimethyl-N-[3-(2-oxazolyl)phenyl]-pentanamide], the IC50 is 23 µM.
In the case of `Cc1ccc(C)c(OCCCC(C)(C)C(=O)Nc2cccc(-c3nnc(C)o3)c2)c1` [Example 5, 5-(2,5-dimethylphenoxy)-2,2-dimethyl-N-[3-(5-methyl-1,3,4-oxadiazol-2-yl)phenyl]pentanamide] it was 21 µM.
